# Measurements published in US20240245709A1, “[…] USE IN TREATMENT OF E[…] EPILEPTICUS” (MARINUS PHARMACEUTICALS, INC., priority 2021, published 2024).
# How the values were obtained:
# [1] = Clinical safety in the ganaxolone development program (placebo-controlled Phase 1, 2 and 3 studies); assay type: in vivo, human
# Source text: In the completed placebo-controlled Phase 1, 2, and 3 studies, 0.32% of subjects who received ganaxolone and 0.46% of subjects who received placebo developed elevated LFTs during the study (>3×ULN AST and/or ALT). A subject participating in the ganaxolone paediatric epilepsy study developed liver failure, which was not considered to be related to ganaxolone. The subject was diagnosed with short bowel syndrome, liver steatosis and IgG-cholangitis, which were considered to be the causal factors for the subject's liver failure. There have been no other cases of Hy's Law or liver failure in the ganaxolone development program. […] After cessation of the dosing, plasma ganaxolone levels are expected to drop rapidly, but it is possible that low sub-therapeutic levels persist for several days as ganaxolone is slowly released from tissues.
# (§1) Ganaxolone has been administered to infants with severe forms of epilepsy as early as 4 months of age. In clinical trials involving administration of ganaxolone over several weeks, the study drug has been tapered off over a 1 to 2-week period.
# [2] = human plasma, oral administration; cited from earlier work
# [3] = Toxicology studies in animals focusing on prenatal and neonatal development; assay type: in vivo
# Source text: as §1
# [4] = biological target: T1, progesterone receptor (Homo sapiens, UniProt P06401); experiment: Progesterone receptor activation; conditions: directly or indirectly, via metabolic conversion
# T1 sequence (P06401 1-933): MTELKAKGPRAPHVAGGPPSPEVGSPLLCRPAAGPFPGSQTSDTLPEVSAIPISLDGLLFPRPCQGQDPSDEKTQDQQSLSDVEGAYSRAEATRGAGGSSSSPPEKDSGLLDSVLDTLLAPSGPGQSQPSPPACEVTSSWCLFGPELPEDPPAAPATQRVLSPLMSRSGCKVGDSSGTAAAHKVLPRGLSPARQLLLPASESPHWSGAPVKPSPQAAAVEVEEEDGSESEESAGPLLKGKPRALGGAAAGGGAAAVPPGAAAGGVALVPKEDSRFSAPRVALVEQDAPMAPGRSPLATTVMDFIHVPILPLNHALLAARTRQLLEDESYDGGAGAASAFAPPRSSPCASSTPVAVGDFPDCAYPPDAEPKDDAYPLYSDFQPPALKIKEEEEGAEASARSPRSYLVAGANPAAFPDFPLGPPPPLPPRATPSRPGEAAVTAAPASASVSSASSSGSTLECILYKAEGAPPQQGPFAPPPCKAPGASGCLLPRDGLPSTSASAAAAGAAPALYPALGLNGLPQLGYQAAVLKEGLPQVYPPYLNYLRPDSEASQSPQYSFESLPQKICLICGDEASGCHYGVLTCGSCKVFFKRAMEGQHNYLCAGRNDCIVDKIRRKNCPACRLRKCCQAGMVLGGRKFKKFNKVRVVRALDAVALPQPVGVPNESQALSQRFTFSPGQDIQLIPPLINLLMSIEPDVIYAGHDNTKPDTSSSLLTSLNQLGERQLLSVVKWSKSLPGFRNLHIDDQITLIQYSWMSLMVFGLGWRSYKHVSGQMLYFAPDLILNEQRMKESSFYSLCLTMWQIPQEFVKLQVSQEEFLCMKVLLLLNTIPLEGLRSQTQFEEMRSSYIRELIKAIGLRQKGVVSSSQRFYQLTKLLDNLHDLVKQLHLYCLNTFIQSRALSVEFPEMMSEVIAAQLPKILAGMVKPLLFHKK
# Source text: Ganaxolone (3α-hydroxy-3β-methyl-5α-pregnan-20-one) is a 3β-methylated synthetic analogue of the endogenous neurosteroid allopregnanolone with similar biological activity (Carter et al., (1997), The Journal of Pharmacology and Experimental Therapeutics, 280:1284-1295), but it is designed to not activate nuclear (classical) progesterone receptors.
# [5] = Solubility of ganaxolone in solvents; assay type: physicochemical
# Method: (§2) Ganaxolone is insoluble in water. […] 3.5 mg/mL, and 3.1 mg/mL, respectively. Ganaxolone has a relatively long half-life—approximately 20 hours in human plasma following oral administration (Nohria, V. and Giller, E., Neurotherapeutics, (2007) 4(1): 102-105). Furthermore, ganaxolone has a short Tmax, which means that therapeutic blood levels are reached quickly.
# Ganaxolone formulations suitable for parenteral administration in the methods of the present invention may comprise physiologically acceptable sterile aqueous or non-aqueous solutions, dispersions, suspensions or emulsions, and sterile powders for reconstitution into sterile injectable solutions or dispersions. Examples of suitable aqueous and non-aqueous carriers, diluents, solvents, or vehicles including water, ethanol, polyols (propylene glycol, polyethylene-glycol, glycerol, cremophor and the like), suitable mixtures thereof, vegetable oils (such as olive oil) and injectable organic esters such as ethyl oleate. Additionally, ganaxolone can be dissolved at concentrations of >1 mg/ml using water soluble beta cyclodextrins (e.g. beta-sulfobutyl-cyclodextrin and 2-hydroxypropylbetacyclodextrin). A particularly suitable cyclodextrin is a substituted-β-cyclodextrin is Captisol®. […]
# [6] = test system: CYP3A4/5; experiment: Metabolism and effect of strong CYP inducers on ganaxolone clearance (in vitro data and human PK data)
# [7] = Human plasma pharmacokinetics following oral administration; assay type: in vivo
# Method: as §2
compound,measurement,setting,value
"CC(=O)[C@H]1CC[C@H]2[C@@H]3CC[C@H]4C[C@](C)(O)CC[C@]4(C)[C@H]3CC[C@]12C [ganaxolone, 3α-hydroxy-3β-methyl-5α-pregnan-20-one]",withdrawal symptoms after cessation,"[1]; clinical trials, several weeks of administration, tapered off over 1 to 2 weeks",no reports of withdrawal symptoms
same,subjects who developed elevated LFTs (>3×ULN AST and/or ALT),"[1]; completed placebo-controlled Phase 1, 2 and 3 studies",0.32%
same,"trends in ECG intervals, vital signs, physical or neurological examinations",[1]; development program overall,no clinically significant trends
same,excretion to breast milk,[1]; ganaxolone and its metabolites,excreted to breast milk
same,plasma concentration that can induce anesthesia,"[1]; subject, intravenous administration",above 1000 ng/ml
same,half-life,[2],approximately 20 hours
same,prenatal and neonatal developmental toxicity,[3],have not demonstrated toxicities
same,activation of the progesterone receptor,[4],does not activate
same,solubility,"[5]; aqueous with cosolvent or surfactant or cyclodextrin, beta-sulfobutyl-cyclodextrin and 2-hydroxypropylbetacyclodextrin, read-out: concentration dissolved using water soluble beta cyclodextrins",> 1000 µg/mL
same,solubility in water,[5]; water,insoluble
same,metabolizing enzyme,"[6]; human, in vivo",metabolized by CYP3A4/5
same,lowering in overall ganaxolone levels and exposure,[6]; subjects taking strong CYP inducers (carbamazepine and phenytoin),~45%
same,Tmax,"[7]; human, in vivo",short
same,oral bioavailability,[7]; in contrast to allopregnanolone,orally bioavailable
